Test results reported in PubChem BioAssay (NCI).
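Cells were grown in 96-well plates and exposed to each compound for 48 hours at five concentrations; endpoints were interpolated linearly between bracketing concentrations, or set to the highest concentration if not reached. TGI: concentration producing complete growth inhibition.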

Columns and labels:
Assay in all cases: growth of human tumour cells (NCI), 48 h
HCT-15 colon = test system: HCT-15 colon
HOP-92 NSCLC = test system: HOP-92 NSCLC
SK-MEL-28 melanoma = test system: SK-MEL-28 melanoma
SK-MEL-5 melanoma = test system: SK-MEL-5 melanoma
UACC-257 melanoma = test system: UACC-257 melanoma
T-47D breast = test system: T-47D breast
COLO 205 colon = test system: COLO 205 colon
DU-145 prostate = test system: DU-145 prostate
A549 NSCLC = test system: A549 NSCLC
ACHN renal = test system: ACHN renal
TK-10 renal = test system: TK-10 renal
OVCAR-4 ovarian = test system: OVCAR-4 ovarian
K-562 leukemia = test system: K-562 leukemia
IGROV1 ovarian = test system: IGROV1 ovarian
NCI-H226 lung = test system: NCI-H226 lung
HCT-116 colon = test system: HCT-116 colon
PC-3 prostate = test system: PC-3 prostate
SF-268 CNS = test system: SF-268 CNS
SK-MEL-2 melanoma = test system: SK-MEL-2 melanoma
OVCAR-5 ovarian = test system: OVCAR-5 ovarian
NCI/ADR-RES ovarian = test system: NCI/ADR-RES ovarian
SN12C renal = test system: SN12C renal
CAKI-1 renal = test system: CAKI-1 renal
HOP-62 NSCLC = test system: HOP-62 NSCLC
MDA-MB-231 breast = test system: MDA-MB-231 breast
MCF7 breast = test system: MCF7 breast
SF-539 CNS = test system: SF-539 CNS
NCI-H23 lung = test system: NCI-H23 lung
KM12 colon = test system: KM12 colon
SF-295 CNS = test system: SF-295 CNS
U251 CNS = test system: U251 CNS
786-0 renal = test system: 786-0 renal
NCI-H522 lung = test system: NCI-H522 lung
RPMI-8226 leukemia = test system: RPMI-8226 leukemia
SW-620 colon = test system: SW-620 colon
EKVX NSCLC = test system: EKVX NSCLC
SNB-19 CNS = test system: SNB-19 CNS
LOX IMVI melanoma = test system: LOX IMVI melanoma
OVCAR-8 ovarian = test system: OVCAR-8 ovarian
RXF 393 renal = test system: RXF 393 renal
SNB-75 CNS = test system: SNB-75 CNS
MDA-N = test system: MDA-N
UACC-62 melanoma = test system: UACC-62 melanoma
NCI-H460 lung = test system: NCI-H460 lung
HS 578T breast = test system: HS 578T breast
UO-31 renal = test system: UO-31 renal
MDA-MB-435 = test system: MDA-MB-435
MOLT-4 leukemia = test system: MOLT-4 leukemia
CCRF-CEM leukemia = test system: CCRF-CEM leukemia
HT29 colon = test system: HT29 colon
SK-OV-3 ovarian = test system: SK-OV-3 ovarian
OVCAR-3 ovarian = test system: OVCAR-3 ovarian
BT-549 breast = test system: BT-549 breast
HCC-2998 colon = test system: HCC-2998 colon
MALME-3M melanoma = test system: MALME-3M melanoma
A498 renal = test system: A498 renal
SR leukemia = test system: SR leukemia
HL-60(TB) leukemia = test system: HL-60(TB) leukemia
M14 melanoma = test system: M14 melanoma

CCOC(=O)/C=C(/C(=O)OCC)n1cc(C)c(=O)n(Cc2cnnn2CCCCOC(C)=O)c1=O
TGI (HCT-15 colon): > 100 µM | TGI (HOP-92 NSCLC): 20.2 µM | TGI (SK-MEL-28 melanoma): > 100 µM | TGI (SK-MEL-5 melanoma): 83.4 µM | TGI (UACC-257 melanoma): > 100 µM | TGI (T-47D breast): 71.1 µM | TGI (COLO 205 colon): 56.7 µM | TGI (DU-145 prostate): > 100 µM | TGI (A549 NSCLC): > 100 µM | TGI (ACHN renal): 23.9 µM | TGI (TK-10 renal): 26.7 µM | TGI (OVCAR-4 ovarian): > 100 µM | TGI (K-562 leukemia): > 100 µM | TGI (IGROV1 ovarian): 38.3 µM | TGI (NCI-H226 lung): > 100 µM | TGI (HCT-116 colon): 32.8 µM | TGI (PC-3 prostate): > 100 µM | TGI (SF-268 CNS): > 100 µM | TGI (SK-MEL-2 melanoma): > 100 µM | TGI (OVCAR-5 ovarian): 39.8 µM | TGI (NCI/ADR-RES ovarian): 69.3 µM | TGI (SN12C renal): > 100 µM | TGI (CAKI-1 renal): 21.4 µM | TGI (HOP-62 NSCLC): > 100 µM | TGI (MDA-MB-231 breast): > 100 µM | TGI (MCF7 breast): 32.5 µM | TGI (SF-539 CNS): 32.9 µM | TGI (NCI-H23 lung): 90.8 µM | TGI (KM12 colon): > 100 µM | TGI (SF-295 CNS): > 100 µM | TGI (U251 CNS): > 100 µM | TGI (786-0 renal): 78.4 µM | TGI (NCI-H522 lung): 14.2 µM | TGI (RPMI-8226 leukemia): 46.2 µM | TGI (SW-620 colon): > 100 µM | TGI (EKVX NSCLC): 49.3 µM | TGI (SNB-19 CNS): > 100 µM | TGI (LOX IMVI melanoma): 41 µM | TGI (OVCAR-8 ovarian): 55.4 µM | TGI (RXF 393 renal): > 100 µM | TGI (SNB-75 CNS): > 100 µM | TGI (MDA-N): > 100 µM | TGI (UACC-62 melanoma): 57.7 µM | TGI (NCI-H460 lung): 71.5 µM | TGI (HS 578T breast): > 100 µM | TGI (UO-31 renal): 36.6 µM | TGI (MDA-MB-435): 87.2 µM | TGI (MOLT-4 leukemia): 47.9 µM | TGI (CCRF-CEM leukemia): 4.57 µM | TGI (HT29 colon): 34.3 µM | TGI (SK-OV-3 ovarian): > 100 µM | TGI (OVCAR-3 ovarian): 32.2 µM | TGI (BT-549 breast): 24.3 µM

Cc1nc2c(Br)cc(Br)cc2c(=O)n1-c1ccccc1N
TGI (HCT-15 colon): > 100 µM | TGI (SK-MEL-28 melanoma): > 100 µM | TGI (SK-MEL-5 melanoma): 39 µM | TGI (UACC-257 melanoma): 86.5 µM | TGI (COLO 205 colon): 44 µM | TGI (DU-145 prostate): > 100 µM | TGI (A549 NSCLC): > 100 µM | TGI (ACHN renal): > 100 µM | TGI (OVCAR-4 ovarian): > 100 µM | TGI (K-562 leukemia): > 100 µM | TGI (IGROV1 ovarian): > 100 µM | TGI (NCI-H226 lung): 99.6 µM | TGI (HCT-116 colon): 66.9 µM | TGI (PC-3 prostate): > 100 µM | TGI (SF-268 CNS): > 100 µM | TGI (SK-MEL-2 melanoma): 58.1 µM | TGI (OVCAR-5 ovarian): > 100 µM | TGI (NCI/ADR-RES ovarian): > 100 µM | TGI (SN12C renal): > 100 µM | TGI (CAKI-1 renal): 96.2 µM | TGI (HCC-2998 colon): > 100 µM | TGI (HOP-62 NSCLC): > 100 µM | TGI (MDA-MB-231 breast): > 100 µM | TGI (MCF7 breast): > 100 µM | TGI (SF-539 CNS): > 100 µM | TGI (MALME-3M melanoma): > 100 µM | TGI (KM12 colon): > 100 µM | TGI (SF-295 CNS): > 100 µM | TGI (786-0 renal): > 100 µM | TGI (A498 renal): > 100 µM | TGI (SR leukemia): > 100 µM | TGI (SW-620 colon): > 100 µM | TGI (EKVX NSCLC): > 100 µM | TGI (SNB-19 CNS): > 100 µM | TGI (LOX IMVI melanoma): > 100 µM | TGI (OVCAR-8 ovarian): > 100 µM | TGI (SNB-75 CNS): 87.3 µM | TGI (MDA-N): > 100 µM | TGI (UACC-62 melanoma): > 100 µM | TGI (NCI-H460 lung): > 100 µM | TGI (HS 578T breast): > 100 µM | TGI (UO-31 renal): 83.8 µM | TGI (MDA-MB-435): > 100 µM | TGI (MOLT-4 leukemia): > 100 µM | TGI (CCRF-CEM leukemia): > 100 µM | TGI (HT29 colon): 65.4 µM | TGI (SK-OV-3 ovarian): > 100 µM | TGI (OVCAR-3 ovarian): > 100 µM | TGI (HL-60(TB) leukemia): 66.5 µM | TGI (M14 melanoma): > 100 µM | TGI (BT-549 breast): 87.6 µM
